Data from the NIST ThermoML archive (doi:10.1016/j.jct.2016.09.007).

Assay: xn = mol fraction of the nth substance listed
Conditions: 93.2 kPa, Liquid; for speed of sound: Frequency=3 MHz, Sing-around technique in a fixed-path interferometer; for mass density: Vibrating tube method

CCCC(=O)[O-].CCCC[NH3+] [n-butylammonium butanoate] + CCCCO
Conditions	mass density, 293.15 K [kg/m3]	mass density, 298.15 K [kg/m3]	mass density, 303.15 K [kg/m3]	mass density, 308.15 K [kg/m3]	mass density, 313.15 K [kg/m3]	speed of sound, 293.15 K [m/s]	speed of sound, 298.15 K [m/s]	speed of sound, 303.15 K [m/s]	speed of sound, 308.15 K [m/s]	speed of sound, 313.15 K [m/s]
x1 = 0.0305	817.522	813.696	809.839	805.95	802.02	1266.2	1249.1	1232	1215.2	1198.4
x1 = 0.053	822.696	818.886	815.044	811.168	807.257	1271.7	1254.5	1237.4	1220.5	1203.8
x1 = 0.101	833.099	829.318	825.508	821.665	817.785	1283.3	1266	1248.9	1231.9	1215
x1 = 0.1611	844.531	840.793	837.028	833.231	829.399	1296.3	1279	1261.8	1244.8	1227.9
x1 = 0.2022	851.656	847.949	844.213	840.451	836.653	1304.8	1287.5	1270.3	1253.2	1236.3
x1 = 0.2509	859.278	855.605	851.908	848.183	844.427	1314	1296.7	1279.5	1262.5	1245.6
x1 = 0.3027	866.842	863.204	859.543	855.853	852.119	1323.6	1306.3	1289.2	1272.1	1255.3
x1 = 0.3528	873.375	869.771	866.147	862.502	858.829	1332.3	1315	1297.9	1280.9	1264.1
x1 = 0.4053	879.699	876.13	872.54	868.931	865.297	1340.8	1323.5	1306.4	1289.5	1272.7
x1 = 0.449	884.611	881.064	877.503	873.925	870.321	1347.7	1330.5	1313.3	1296.4	1279.7
x1 = 0.4988	889.855	886.337	882.803	879.25	875.67	1355.4	1338.1	1321	1304.1	1287.4
x1 = 0.5505	894.968	891.475	887.969	884.447	880.9	1363.2	1345.9	1328.8	1311.9	1295.2
x1 = 0.6005	899.486	896.02	892.541	889.046	885.533	1370.4	1353	1335.9	1319	1302.3
x1 = 0.6491	903.634	900.198	896.744	893.273	889.785	1377.4	1359.9	1342.7	1325.8	1309.1
x1 = 0.6982	907.626	904.22	900.798	897.354	893.894	1384.5	1366.9	1349.6	1332.6	1316
x1 = 0.7456	911.277	907.896	904.501	901.087	897.65	1391.5	1373.7	1356.2	1339.1	1322.3
x1 = 0.7944	914.718	911.354	907.982	904.593	901.177	1398.7	1380.5	1362.8	1345.5	1328.7
x1 = 0.8462	918.325	914.961	911.608	908.243	904.86	1406.7	1388	1370	1352.5	1335.5
x1 = 0.8928	921.358	917.984	914.632	911.284	907.92	1414.2	1394.9	1376.5	1358.7	1341.5
x1 = 0.9463	924.512	921.173	917.809	914.461	911.112	1422.7	1402.7	1383.7	1365.5	1348
x1 = 1	928.794	925.509	922.217	918.88	915.567	1431.5	1410.3	1390.4	1371.5	1353.6
